Laboratory results: the NIST ThermoML archive (doi:10.1021/je5000132)
± gives the expanded uncertainty stated by the source.

Assay: xn = mol fraction of the nth substance listed
Settings: for speed of sound: 100 kPa, Pulse-echo method; for speed of sound / viscosity / mass density: Liquid; for viscosity / mass density: 101 kPa; for viscosity: Concentric cylinders viscometry; for mass density: Vibrating tube method; for surface tension liquid-gas: 294.7 K, Drop volume

CC(CC(C)(C)C)CC(C)(C)CC(C)(C)C (stereo not given) [2,2,4,4,6,8,8-heptamethylnonane] + CCCCCCCCCCCC
Settings	mass density [kg/m3]	speed of sound [m/s]	viscosity [mPa·s]
293.15 K, x1 = 0.103	753.263 ± 1	1295.6 ± 1.4	1.59 ± 0.02
293.15 K, x1 = 0.1677	756.137 ± 1	1294.1 ± 1.4	1.67 ± 0.02
293.15 K, x1 = 0.2944	761.09 ± 1	1292 ± 1.5	1.84 ± 0.022
293.15 K, x1 = 0.4191	765.497 ± 1.1	1290.5 ± 1.7	2.03 ± 0.023
293.15 K, x1 = 0.5011	768.604 ± 1.1	1289.5 ± 1.7	2.19 ± 0.025
293.15 K, x1 = 0.5955	771.819 ± 1.1	1288.5 ± 1.8	2.4 ± 0.027
293.15 K, x1 = 0.7585	777.128 ± 1.1	1287.2 ± 2	2.83 ± 0.032
293.15 K, x1 = 0.8985	781.527 ± 1.1	1286.3 ± 2.1	3.29 ± 0.037
293.15 K, x1 = 1	784.457 ± 1.1	1285.7 ± 2.2	3.7 ± 0.043
303.15 K, x1 = 0.103	746.092 ± 1	1257.5 ± 1.4	1.32 ± 0.019
303.15 K, x1 = 0.1677	749.065 ± 1	1256.2 ± 1.4	1.39 ± 0.019
303.15 K, x1 = 0.2944	754.068 ± 1	1254.3 ± 1.5	1.53 ± 0.02
303.15 K, x1 = 0.4191	758.54 ± 1.1	1252.9 ± 1.7	1.67 ± 0.022
303.15 K, x1 = 0.5011	761.702 ± 1.1	1252 ± 1.7	1.8 ± 0.023
303.15 K, x1 = 0.5955	764.964 ± 1.1	1251 ± 1.8	1.95 ± 0.024
303.15 K, x1 = 0.7585	770.346 ± 1.1	1249.8 ± 1.9	2.28 ± 0.028
303.15 K, x1 = 0.8985	774.79 ± 1.1	1248.9 ± 2.1	2.62 ± 0.032
303.15 K, x1 = 1	777.761 ± 1.1	1248.5 ± 2.2	2.92 ± 0.035
313.15 K, x1 = 0.103	738.895 ± 1	1219.8 ± 1.4	1.12 ± 0.018
313.15 K, x1 = 0.1677	741.921 ± 1	1218.7 ± 1.4	1.17 ± 0.019
313.15 K, x1 = 0.2944	747.011 ± 1	1217 ± 1.5	1.28 ± 0.019
313.15 K, x1 = 0.4191	751.556 ± 1.1	1215.7 ± 1.6	1.4 ± 0.02
313.15 K, x1 = 0.5011	754.77 ± 1.1	1214.9 ± 1.7	1.5 ± 0.021
313.15 K, x1 = 0.5955	758.085 ± 1.1	1214.1 ± 1.8	1.63 ± 0.022
313.15 K, x1 = 0.7585	763.538 ± 1.1	1213 ± 1.9	1.88 ± 0.025
313.15 K, x1 = 0.8985	768.028 ± 1.1	1212.2 ± 2.1	2.14 ± 0.028
313.15 K, x1 = 1	771.044 ± 1.1	1211.8 ± 2.2	2.37 ± 0.03
323.15 K, x1 = 0.103	731.669 ± 1	1182.8 ± 1.4	0.966 ± 0.018
323.15 K, x1 = 0.1677	734.749 ± 1	1181.8 ± 1.4	1.01 ± 0.018
323.15 K, x1 = 0.2944	739.926 ± 1	1180.3 ± 1.5	1.1 ± 0.019
323.15 K, x1 = 0.4191	744.546 ± 1.1	1179.2 ± 1.6	1.19 ± 0.019
323.15 K, x1 = 0.5011	747.812 ± 1.1	1178.5 ± 1.7	1.27 ± 0.02
323.15 K, x1 = 0.5955	751.18 ± 1.1	1177.8 ± 1.8	1.37 ± 0.021
323.15 K, x1 = 0.7585	756.708 ± 1.1	1176.8 ± 1.9	1.57 ± 0.023
323.15 K, x1 = 0.8985	761.266 ± 1.1	1176.3 ± 2.1	1.77 ± 0.025
323.15 K, x1 = 1	764.316 ± 1.1	1176 ± 2.2	1.95 ± 0.027
333.15 K, x1 = 0.103	724.407 ± 1	1146.3 ± 1.4	0.84 ± 0.018
333.15 K, x1 = 0.1677	727.54 ± 1	1145.4 ± 1.4	0.877 ± 0.018
333.15 K, x1 = 0.2944	732.805 ± 1	1144.2 ± 1.5	0.95 ± 0.018
333.15 K, x1 = 0.4191	737.503 ± 1.1	1143.3 ± 1.6	1.03 ± 0.019
333.15 K, x1 = 0.5011	740.821 ± 1.1	1142.7 ± 1.7	1.09 ± 0.019
333.15 K, x1 = 0.5955	744.244 ± 1.1	1142.2 ± 1.8	1.17 ± 0.02
333.15 K, x1 = 0.7585	749.858 ± 1.1	1141.4 ± 1.9	1.33 ± 0.021
333.15 K, x1 = 0.8985	754.484 ± 1.1	1141 ± 2.1	1.49 ± 0.023
333.15 K, x1 = 1	757.571 ± 1.1	1140.8 ± 2.2	1.63 ± 0.024
343.15 K, x1 = 0.103	717.1 ± 1	–	0.738 ± 0.017
343.15 K, x1 = 0.1677	720.2 ± 1	–	0.769 ± 0.018
343.15 K, x1 = 0.2944	725.6 ± 1	–	0.83 ± 0.018
343.15 K, x1 = 0.4191	730.4 ± 1.1	–	0.895 ± 0.018
343.15 K, x1 = 0.5011	733.7 ± 1.1	–	0.949 ± 0.019
343.15 K, x1 = 0.5955	737.2 ± 1.1	–	1.01 ± 0.019
343.15 K, x1 = 0.7585	743 ± 1.1	–	1.14 ± 0.02
343.15 K, x1 = 0.8985	747.6 ± 1.1	–	1.27 ± 0.021
343.15 K, x1 = 1	750.7 ± 1.1	–	1.39 ± 0.022
353.15 K, x1 = 0.103	709.6 ± 1	–	0.654 ± 0.017
353.15 K, x1 = 0.1677	712.7 ± 1	–	0.681 ± 0.017
353.15 K, x1 = 0.2944	718.2 ± 1	–	0.732 ± 0.018
353.15 K, x1 = 0.4191	723.1 ± 1.1	–	0.787 ± 0.018
353.15 K, x1 = 0.5011	726.5 ± 1.1	–	0.832 ± 0.018
353.15 K, x1 = 0.5955	730.1 ± 1.1	–	0.885 ± 0.019
353.15 K, x1 = 0.7585	736 ± 1.1	–	0.994 ± 0.019
353.15 K, x1 = 0.8985	740.7 ± 1.1	–	1.1 ± 0.02
353.15 K, x1 = 1	743.8 ± 1.1	–	1.19 ± 0.021
363.15 K, x1 = 0.103	702 ± 1	–	0.585 ± 0.017
363.15 K, x1 = 0.1677	705.3 ± 1	–	0.608 ± 0.017
363.15 K, x1 = 0.2944	710.8 ± 1	–	0.652 ± 0.017
363.15 K, x1 = 0.4191	715.8 ± 1.1	–	0.698 ± 0.018
363.15 K, x1 = 0.5011	719.2 ± 1.1	–	0.737 ± 0.018
363.15 K, x1 = 0.5955	722.9 ± 1.1	–	0.782 ± 0.018
363.15 K, x1 = 0.7585	728.9 ± 1.1	–	0.873 ± 0.019
363.15 K, x1 = 0.8985	733.6 ± 1.1	–	0.963 ± 0.019
363.15 K, x1 = 1	736.8 ± 1.1	–	1.04 ± 0.02
373.15 K, x1 = 0.103	694.5 ± 1	–	0.528 ± 0.017
373.15 K, x1 = 0.1677	697.8 ± 1	–	0.548 ± 0.017
373.15 K, x1 = 0.2944	703.5 ± 1	–	0.586 ± 0.017
373.15 K, x1 = 0.4191	708.5 ± 1	–	0.626 ± 0.017
373.15 K, x1 = 0.5011	712 ± 1.1	–	0.659 ± 0.018
373.15 K, x1 = 0.5955	715.8 ± 1.1	–	0.697 ± 0.018
373.15 K, x1 = 0.7585	721.8 ± 1.1	–	0.775 ± 0.018
373.15 K, x1 = 0.8985	726.6 ± 1.1	–	0.85 ± 0.019
373.15 K, x1 = 1	729.9 ± 1.1	–	0.914 ± 0.019

Settings	surface tension liquid-gas [mN/m]
x1 = 0.1677	24.8 ± 0.3
x1 = 0.2944	24.9 ± 0.3
x1 = 0.4191	24.6 ± 0.3
x1 = 0.5011	24.6 ± 0.3
x1 = 0.5955	24.3 ± 0.3
x1 = 0.7585	24.2 ± 0.3
x1 = 0.8985	24.2 ± 0.3
x1 = 1	24 ± 0.3
